Read-outs that look alike come from different tables or passages of the source.
Legend:
L-type calcium channels = experiment: Calcium channel influx assay (fluorescence, AtT20 cell line); assay type: cell-based, mouse; conditions: AtT20 cells, 100 mM KCl depolarization; read-out: Ca++ influx IC50
Description: AtT20/D16v-F2 mouse pituitary tumour cell line preferentially expresses L-type calcium channels.
AtT20 cells were grown in DMEM with 10% of FBS, 4 mM glutamine. The cells were seeded at 200,000 cells/well on 96 poly-L-lysine-coated plates and further incubated for 18-24 h, before use.
The Ca^++ Kit Assay (Molecular Devices), which is based on a fluorescent calcium indicator to detect the calcium influx determined by depolarizing conditions, was used for the assay.
Cells were incubated with the calcium dye loading for 30 min at 37° C. Then, ω-conotoxin alone (1 μM) or in presence of nifedipine (as reference standard) or test compound were added for further 15 min.
The fluorescence (excitation: 485-emission: 535 nm wavelength) was measured before and after (30-40 sec) the automated injection of 100 mM KCl depolarizing solution using a Victor plate reader (Perkin Elmer).
The inhibition curves were calculated from 5 concentrations, each in triplicate, and the IC50 determined using linear regression analysis.

[1] = test system: Na+ currents in ND7/23 cells (TTX-s); experiment: Patch clamp evaluation of Na+ currents blockade in ND7/23 cell line; assay type: cell-based, rat
Description: ND7/23 (ECACC No 92090903 from SIGMA), is a hybrid cell line derived from a neonatal rat DRG fused with the mouse neuroblastoma N18Tg2 (Wood et al., Proc. Biol. Sci., 1990 September, 241(1302), 187-194).
The molecular identity of the channels responsible for the TTX-s conductance is unknown but it is presumed that TTX-s conductance arises from the activity of a mixed population of sodium channels.
Cells are routinously maintained in DMEM with 10% of FBS, 4 mM glutamine, 1 mM sodium piruvate. The day before the patch clamp experiment cells are detached and seeded at 100,000 cells/polylysine-coated 35 mm Petri dish.
Experiments on ND7/23 cells were carried out using standard whole cell patch clamp methods (Hamill et al., Pfugers Arch., 1981 August, 391(12), 85-100), as described in previous section.
To test the effect of compounds on sodium currents in ND7/23 cells, holding membrane potential was set at −90 mV, then a two step protocol was used to determine the voltage dependence of the block. Sodium currents were activated by a 30 ms step pulse to 0 mV (test pulse) from a 2000 ms preconditioning potential of −110 mV (resting condition) and a potential of ˜−70 mV (half maximal steady-state condition).
Tonic block of resting and depolarized currents at a given drug concentration was calculated as the difference between the peak Na^+ current in the control external bath solution and peak currents with the test substance divided by control peak.
Drug concentration-inhibition curves were obtained by plotting tonic blocks in the resting and depolarized condition, versus drug concentrations. Dose-response curves were fitted to the tonic block data, according to the logistic equation: y=A2+(A1−A2)/[1+(x/IC50)p]. A1 and A2 are fixed values of 0 and 1 corresponding to 0 and 100% current inhibition, x is the drug concentration, IC50 is the drug concentration resulting in 50% current inhibition and p is the corresponding slope factor.
The apparent affinity of drug for the inactivated state (Ki) was calculated according to the equation 1/Kdep=h/Kr+(1−h)/Ki where Kr is the affinity of drug for the resting/closed state; Kdep is the IC50 in the depolarized condition, h and (1−h) are the fractions of channels present at the rest. and dep. potentials, respectively.
Control bath solution contained (mM): NaCl 80, Choline HCl 40, CaCl2 1.3, MgCl2 2, KCl 2, CdCl2 0.4, NiCl2 0.3, TEACl 20, Hepes 10, Glucose 10.
Internal pipette solution consisted of (mM): CsF 65, CsCl 65, NaCl 10, CaCl2 1.3, MgCl2 2, Hepes 10, EGTA 10, MgATP 1.
Compounds were dissolved as stock solutions (20 mM) in DMSO. They were diluted to the final concentrations in the external solution.

MAO-B = MAO-B (Rattus norvegicus (Rat), UniProt P19643); experiment: In vitro MAO-B enzyme activity assay (radioenzymatic, rat brain mitochondria); assay type: biochemical; conditions: 14C-PEA 0.5 μM
Description: Male Wistar rats (Harlan, Italy weighing 175-200 g) were sacrificed under light anaesthesia and brains were rapidly removed and homogenized in 8 volumes of ice-cold 0.32 M sucrose buffer containing 0.1 M EDTA, pH 7.4. The crude homogenate was centrifuged at 2220 rpm for 10 minutes and the supernatant recovered. The pellet was homogenized and centrifuged again. The two supernatants were pooled and centrifuged at 9250 rpm for 10 minutes at +4° C. The pellet was resuspended in fresh buffer and centrifuged at 11250 rpm for 10 minutes at +4° C. The resulting pellet was stored at −80° C. The enzyme activity was assessed with a radioenzymatic assay using the substrate ^14C-phenylethylamine (PEA) specific for MAO-B. The mitochondrial pellet (500 μg protein) was resuspended in 0.1 M phosphate buffer (pH 7.4). 200 μl of the suspension were added to a 50 μl solution of the test compound or buffer, and incubated for 30 min at 37° C. (preincubation) then the substrate (50 μl) was added. The incubation was carried out for 10 minutes at 37° C. (^14C-PEA, 0.5 μM). The reaction was stopped by adding 0.2 ml of perchloric acid. After centrifugation, the deaminated metabolites were extracted with 3 ml of toluene and the radioactive organic phase containing the neutral and/or acidic metabolites formed as a result of MAO-B activity was measured by liquid scintillation spectrometry at 90% efficiency. The MAO-B activity was expressed as nmoles of substrate transformed/mg protein/min.

SNL rats = experiment: Spinal nerve ligation model of neuropathic pain (thermal hyperalgesia); assay type: in vivo; conditions: Rattus norvegicus, po, orally administered

Chain of MAO-B (P19643 whole entry): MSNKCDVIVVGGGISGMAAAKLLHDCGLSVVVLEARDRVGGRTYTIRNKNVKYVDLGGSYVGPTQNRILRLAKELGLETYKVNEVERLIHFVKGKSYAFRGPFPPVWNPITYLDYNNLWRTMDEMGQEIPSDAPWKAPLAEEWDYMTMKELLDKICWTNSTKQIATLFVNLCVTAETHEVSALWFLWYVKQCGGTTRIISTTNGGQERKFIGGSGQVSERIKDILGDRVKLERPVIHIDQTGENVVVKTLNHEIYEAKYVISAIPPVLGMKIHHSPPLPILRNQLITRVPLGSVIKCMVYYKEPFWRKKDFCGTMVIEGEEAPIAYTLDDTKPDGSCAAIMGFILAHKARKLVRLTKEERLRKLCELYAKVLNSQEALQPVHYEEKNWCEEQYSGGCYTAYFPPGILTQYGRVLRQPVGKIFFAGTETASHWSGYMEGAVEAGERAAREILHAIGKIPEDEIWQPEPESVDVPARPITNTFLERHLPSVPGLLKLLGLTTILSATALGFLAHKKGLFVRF

SMILES | IC50 (L-type calcium channels) | Ki ([1]; calculated from Kr and Kdep, read-out: Ki (apparent affinity for the inactivated state)) | IC50 ([1]; read-out: IC50 depolarized, preconditioning potential ~-70 mV) | IC50 ([1]; read-out: IC50 resting (Kr), preconditioning potential -110 mV) | IC50 (MAO-B) | ED50 (SNL rats)
C[C@H](NCc1ccc(OCc2ccccc2F)cc1)C(N)=O [ralfinamide, (S)-(+)-2-[4-(2-fluorobenzyloxy)-benzylamino]-propanamide, reference compound] | 26 µM | 8.3 µM | 15 µM | 149 µM | 0.2 µM | 
CCCCOc1cccc(CCNCC(=O)N(C)C)c1.Cl [2-[2-(3-Butoxyphenyl)-ethylamino]-N,N-dimethylacetamide hydrochloride] |  |  |  |  | 231 µM | 10.6 mg/kg

Source: patent US9051240B2, “Substituted 2-[2-(phenyl) ethylamino] alkaneamide derivatives and their use as sodium and/or calcium channel modulators” (Newron Pharmaceuticals S.P.A., priority 2007, dated 2015)
